In patent publication US20070066483A1, “Plant Nourishing” (priority 2004, published 2007):

Tested on: carnations
Experiment: Preservation of cut carnations in vases of distilled water with one additive each
Assay type: in vivo
Details: one cut carnation per vase, one teaspoon of additive in 1 cup distilled water; for order in which the flowers collapsed: collapsed = flower fell to a side of the stem
Description: The materials in the experiment used included seven vases; one cutting knife; one teaspoon each of lemon-lime soda, sugar, aspirin, house bleach, vitamins, a sports drink, including citric acid, potassium, sodium, sugar and water, eight cups of warm distilled water, and seven fresh carnations Each of the seven vases were filled with 1 cup of distilled water. One teaspoon of each additive was added to its own separate vase of distilled water. One vase only contained distilled water because it was used as the control group. Each carnation was cut on the end at a slant. […] Referring to FIG. 3, the conditions of each flower were recorded after every 24-hour period on a scale from “1” to “10.” Scores between “7” to “10” are “good,” scores between “4” to “6” are “fair,” and scores between “0” to “3” are poor. […] A flower was “collapsed” when it decayed to a point where the flower 14 fell to a side of the stem 18. Aspirin is recommended to preserve flowers by many florists because it lowers the PH level of water, making it more acidic. Acid helps water move more easily up the tubes in a flower's stem 18. However, some florists argue that aspirin can damage flowers, which this experiment supported. Bleach was used in the experiment because bleach kills bacteria, which is harmful to flowers. However, the bleach and water solution only preserved its flower for ten out of nineteen days. […] The carnation with vitamins and water solution may have collapsed because of bacteria growth that developed in the vase. The control group (water only) preserved its carnation for an average length of thirteen days. […] All three solutions contained sugar, a vital substance needed by plants to carry out photosynthesis. The flower with the lemon lime soda lasted for sixteen days, and the flower with sugar lasted for eighteen days. The sports drink and water was the solution that preserved its flower the longest, approximately twenty-nine days.

Row | Compound | order in which the flowers collapsed | time the flower was preserved (until collapse) (condition recorded every 24 hours)
1 | CC(=O)Oc1ccccc1C(=O)O [aspirin] | first flowers to collapse | –
2 | sugar | last three flowers to remain fresh | eighteen
